Here are results for 1 molecule from patent US12090163B2, “Pharmaceutical compositions” (CIPLA LIMITED, priority 2017, dated 2024).

Counter-ions that a name gives are not always drawn.

Type in all cases: cell-based
One series deals with HIV-1 isolate JV-1083. Kind of series: In vitro efficacy against HIV-1 in fresh PBMCs (reverse transcriptase activity in supernatant), isolate JV-1083. The protocol: Fresh human PBMCs, seronegative for HIV and HBV, were isolated from screened donors (Biological Specialty Corporation, Colmar, PA). Cells were pelleted/washed 2-3 times by low speed centrifugation and re-suspension in PBS to remove contaminating platelets. The Leukophoresed blood was then diluted 1:1 with Dulbecco's Phosphate Buffered Saline (DPBS) and layered over 15 mL of Ficoll (GE Healthcare #17-1440-02) in 50 mL centrifuge tube and then centrifuged for 30 minutes at 600×g. Banded PBMCs were gently aspirated from the resulting interface and subsequently washed 2× with PBS by low speed centrifugation. After the final wash, cells were enumerated by tryptan blue exclusion and re-suspended at 1×10^6 cells/mL in RPMI 1640 supplemented with 15% Fetal Bovine Serum (FBS), and 2 mM L-glutamine, 4 μg/mL Phytohemagglutinin (PHA, Sigma). The cells were allowed to incubate for 48-72 hours at 37° C. After incubation, PBMCs were centrifuged and re-suspended in RPMI 1640 with 15% FBS, 2 mM L-glutamine, 100 U/mL penicillin, 100 μg/mL streptomycin, and approximately 100-150 U/mL recombinant human IL-2 (R&D Systems, Inc). IL-2 was included in the culture medium to maintain the cell division initiated by the PHA mitogenic stimulation. PBMCs were maintained in this medium at a concentration of 1-2×10^6 cells/mL with biweekly medium changes until used in the assay protocol. Cells were kept in culture for a maximum of two weeks before being deemed too old for use in assays and discarded. MDMs were depleted from the culture as the result of adherence to the tissue culture flask. […] Pooling (mixing) of mononuclear cells from more than one donor was used to minimize the variability observed between individual donors, which results from quantitative and qualitative differences in HIV infection and overall response to the PHA and IL-2 of primary lymphocyte populations. […]

The nature of series [1]: Compound cytotoxicity in PBMC assay plates by MTS. The conditions noted are these: human, PBMCs, listed as of isolate JV-1083. Here is the method:
Fresh human PBMCs, seronegative for HIV and HBV, were isolated from screened donors (Biological Specialty Corporation, Colmar, PA). Cells were pelleted/washed 2-3 times by low speed centrifugation and re-suspension in PBS to remove contaminating platelets. The Leukophoresed blood was then diluted 1:1 with Dulbecco's Phosphate Buffered Saline (DPBS) and layered over 15 mL of Ficoll (GE Healthcare #17-1440-02) in 50 mL centrifuge tube and then centrifuged for 30 minutes at 600×g. Banded PBMCs were gently aspirated from the resulting interface and subsequently washed 2× with PBS by low speed centrifugation. […] Pooling (mixing) of mononuclear cells from more than one donor was used to minimize the variability observed between individual donors, which results from quantitative and qualitative differences in HIV infection and overall response to the PHA and IL-2 of primary lymphocyte populations. […]
Following removal of supernatant samples, compound cytotoxicity was measured by addition of MTS to the plates for determination of cell viability. […]
At assay termination, assay plates were stained with the soluble tetrazolium-based dye MTS (CellTiter 96 Reagent, Promega) to determine cell viability and quantify compound toxicity. […] This allows the rapid quantitative analysis of cell viability and compound cytotoxicity. […]

Series [2] is described as follows: Cytotoxicity in HepG2 2.2.15 cells by MTS uptake assay. The conditions noted are these: human, HepG2 2.2.15 cells (contain the HBV ayw1 genome), same assay plate.
Another series has as its system HCV replicon. Kind of series: HCV replicon antiviral evaluation assay. Here is the method: (§1) The subgenomic HCV replicons of genotype 1a (H77 strain), 1b (Coni strain), and 2a (JFH-1 strain), which are Huh7 human hepatoma cell lines that contains an HCV replicon were used.
The HCV replicon antiviral evaluation assay examines the effects of compounds at six serial dilutions. Human interferon alpha-2b (rIFNα-2b) and/or Sofosbuvir were included in each run as a positive control compound.
(§2) Briefly, the replicon cells were plated at 5,000 cells/well into 96-well plates that were dedicated for the analysis of cell numbers (cytotoxicity) or antiviral activity. On the following day, samples were diluted with assay media and added to the appropriate wells. Cells were processed 72 hours later when the cells were still sub-confluent. For the luciferase endpoint assay, HCV replicon levels were assessed as replicon-derived Luc activity. The concentration of drug that reduces cell viability was assessed by the fluorometric CytoTox-1 cell proliferation assay (Promega), (expressed as cell numbers). For the qRT-PCR/TaqMan assay, total RNA was extracted from the replicon cells using RNeasy 96 kit (Qiagen) according to the manufacturer's protocol. Real-time RTPCR/TaqMan assays was performed to measure copy numbers of the replicon RNA and cellular ribosomal RNA.
For orientation: A replicon is a self-replicating genome or part of one, used to study replication in cells.

A short description of series [3]: Cytotoxicity in HCV replicon cells (CytoTox-1 cell proliferation assay). As to conditions: human, concentration decreasing cell viability by 50%. The protocol:
as §1, §2

In general, EC50 refers to the concentration at which the effect is half-maximal. Higher therefore signals weaker potency. In general, CC50 refers to the concentration that lowers cell viability or growth by half. A low value points to greater toxicity to the cells. On to `C[C@H](Cn1cnc2c(N)ncnc21)OCP(=O)(OCOC(=O)C(C)(C)C)Oc1ccccc1` (stereo partly drawn) [((((((R)-1-(6-amino-9H-purin-9-yl)propan-2-yl)oxy)methyl)(phenoxy)phosphoryl)oxy)methyl pivalate fumarate], for which the “Selectivity Index” value came to 11241 in the series on HIV-1 isolate JV-1083 (HIV-1 isolate JV-1083, PBMCs) and 5.98 in the series with HCV replicon (CC50/EC50, HCV replicon cells). The EC50 with HIV-1 isolate JV-1083 (Human immunodeficiency virus 1, PBMC, HIV-1 isolate JV-1083, PHA-stimulated fresh human PBMCs, six-seven days) was determined as 0.00246 µM; with HCV replicon (Hepatitis C virus, concentration inhibiting HCV replicon by 50%, 72 hours, genotype not given), 8.38 µM. In the series with HIV-1 isolate JV-1083 (against the two HIV-1 isolates (JV-1083, 89BZ_167) in PBMCs), the “Conclusion: activity against HIV-1” value is reported as “potently active”. Further, in series [1], it took 27.7 µM to reach half-maximal cytotoxicity (CC50). This molecule returned a cytotoxic concentration (CC50) at 6 days in series [2] of over 100 µM. In addition, the “Conclusion: activity against HCV” value in the series with HCV replicon (HCV replicon assay) was “active”. In series [3], this molecule came in with a CC50 at 72 h of 50.1 µM.
